Assay results: patent US20230271954A1 (Gossamer Bio Services, Inc., priority 2020, published 2023)

Assays:
[1] = molecular target: DGKα (Homo sapiens, UniProt P23743); experiment: DGKα biochemical assay (ADP-Glo); settings: read-out: DGK α IC50
How it was run: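 ADP-Glo kinase assay using OAG/PS (1:2) lipid substrate, sonicated, in HEPES pH 7.0 buffer with MgCl2, CaCl2, DTT, BSA, Triton X-100. Enzyme preincubated with compound 30 min at RT; substrate with ATP (DGKα: 400 μM) added, 45 min RT. Luminescence read; % inhibition vs DMSO and no-enzyme controls.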

[2] = molecular target: T1, DGKζ (Homo sapiens, UniProt Q13574); experiment: DGKζ biochemical assay (ADP-Glo); settings: read-out: DGK ζ IC50
T1 construct: purchased Carna 12-110
T1 sequence (Q13574 1-929 isoform Q13574-4): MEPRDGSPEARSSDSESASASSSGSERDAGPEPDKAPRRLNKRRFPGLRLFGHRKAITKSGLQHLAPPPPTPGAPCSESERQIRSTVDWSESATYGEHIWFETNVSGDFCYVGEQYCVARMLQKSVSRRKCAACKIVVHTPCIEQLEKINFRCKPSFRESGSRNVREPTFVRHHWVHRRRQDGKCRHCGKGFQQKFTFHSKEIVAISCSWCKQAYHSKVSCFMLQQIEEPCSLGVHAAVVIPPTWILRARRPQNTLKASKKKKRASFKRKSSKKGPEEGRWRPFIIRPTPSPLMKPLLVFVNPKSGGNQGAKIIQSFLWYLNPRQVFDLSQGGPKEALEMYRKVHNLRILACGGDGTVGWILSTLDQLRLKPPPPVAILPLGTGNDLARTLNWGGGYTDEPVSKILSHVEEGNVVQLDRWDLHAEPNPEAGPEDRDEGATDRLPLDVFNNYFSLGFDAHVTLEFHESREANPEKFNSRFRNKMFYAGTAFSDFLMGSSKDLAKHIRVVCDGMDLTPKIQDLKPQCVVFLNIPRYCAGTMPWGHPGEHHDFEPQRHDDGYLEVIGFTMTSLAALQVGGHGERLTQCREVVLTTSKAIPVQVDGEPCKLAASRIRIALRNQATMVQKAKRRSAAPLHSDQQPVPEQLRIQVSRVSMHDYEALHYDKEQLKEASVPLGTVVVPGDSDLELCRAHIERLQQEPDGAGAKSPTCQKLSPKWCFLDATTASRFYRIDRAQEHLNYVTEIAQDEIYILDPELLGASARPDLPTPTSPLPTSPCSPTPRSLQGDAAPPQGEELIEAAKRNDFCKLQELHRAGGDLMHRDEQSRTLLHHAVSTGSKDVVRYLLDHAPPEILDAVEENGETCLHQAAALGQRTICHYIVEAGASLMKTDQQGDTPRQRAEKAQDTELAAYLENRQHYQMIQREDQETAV

Chain of DGKα (P23743 whole entry): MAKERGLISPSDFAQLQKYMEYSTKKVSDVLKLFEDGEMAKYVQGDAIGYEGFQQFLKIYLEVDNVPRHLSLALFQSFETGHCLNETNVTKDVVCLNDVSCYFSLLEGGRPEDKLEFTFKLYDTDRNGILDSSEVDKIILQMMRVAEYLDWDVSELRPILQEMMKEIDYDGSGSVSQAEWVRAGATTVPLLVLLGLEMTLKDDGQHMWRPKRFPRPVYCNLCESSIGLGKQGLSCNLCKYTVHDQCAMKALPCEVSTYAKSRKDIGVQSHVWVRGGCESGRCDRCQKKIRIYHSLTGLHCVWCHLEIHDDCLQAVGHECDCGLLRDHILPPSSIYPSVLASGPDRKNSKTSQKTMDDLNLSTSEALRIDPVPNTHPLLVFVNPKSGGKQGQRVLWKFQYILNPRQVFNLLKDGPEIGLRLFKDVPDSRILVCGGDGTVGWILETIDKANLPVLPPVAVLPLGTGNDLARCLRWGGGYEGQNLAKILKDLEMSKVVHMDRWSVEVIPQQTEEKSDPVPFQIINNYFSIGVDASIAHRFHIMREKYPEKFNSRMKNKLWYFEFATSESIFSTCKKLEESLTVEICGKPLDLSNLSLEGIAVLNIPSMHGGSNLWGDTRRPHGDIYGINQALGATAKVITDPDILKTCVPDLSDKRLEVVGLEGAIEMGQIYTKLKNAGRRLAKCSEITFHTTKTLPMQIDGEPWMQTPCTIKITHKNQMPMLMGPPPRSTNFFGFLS

SMILES: COc1cc(N(CC2CC2)[C@H]2CC[C@@H](N(C)c3cc(=O)n(C)c4ccc(C#N)nc34)CC2)ccc1F [Example 38, cis-8-((4-((cyclopropylmethyl)(4-fluoro-3-methoxyphenyl)amino)cyclohexyl)(methyl)amino)-5-methyl-6-oxo-5,6-dihydro-1,5-naphthyridine-2-carbonitrile]
- IC50 [1]: 100 to 1000 nM
- IC50 [2]: 100 to 1000 nM

SMILES: COc1cc(N(CC2CC2)[C@H]2CC[C@H](N(C)c3c(C#N)c(=O)n(C)c4ccc(Cl)nc34)CC2)ccc1F [Example 39, trans-6-chloro-4-((4-((cyclopropylmethyl)(4-fluoro-3-methoxyphenyl)amino)cyclohexyl)(methyl)amino)-1-methyl-2-oxo-1,2-dihydro-1,5-naphthyridine-3-carbonitrile]
- IC50 [1]: 10 to 100 nM
- IC50 [2]: 100 to 1000 nM

SMILES: COc1cc(F)ccc1N(C)[C@H]1CC[C@H](N(C)c2c(C#N)c(=O)n(C)c3ccc(Cl)nc23)CC1 [Example 40, trans-6-chloro-4-((4-((4-fluoro-2-methoxyphenyl) (methyl)amino)cyclohexyl)(methyl)amino)-1-methyl-2-oxo-1,2-dihydro-1,5-naphthyridine-3-carbonitrile]
- IC50 [1]: 10 to 100 nM
- IC50 [2]: ≥ 1000 nM

SMILES: CC(C)CN(c1ccc(F)cc1)[C@H]1CC[C@H](N(C)c2cc(=O)n(C)c3ccc(C#N)nc23)CC1 [Example 41, trans-8-((-4-((4-fluorophenyl)(isobutyl)amino)cyclohexyl)(methyl)amino)-5-methyl-6-oxo-5,6-dihydro-1,5-naphthyridine-2-carbonitrile]
- IC50 [1]: ≥ 1000 nM
- IC50 [2]: ≥ 1000 nM

SMILES: Cn1c(=O)c(C#N)c(N(C)[C@H]2CC[C@@H](N(CC3CCC3)c3ccc(F)cc3)CC2)c2nc(C#N)ccc21 [Example 42, cis-8-((-4-((cyclobutylmethyl)(4-fluorophenyl)amino)cyclohexyl)(methyl)amino)-5-methyl-6-oxo-5,6-dihydro-1,5-naphthyridine-2,7-dicarbonitrile]
- IC50 [1]: < 10 nM
- IC50 [2]: 100 to 1000 nM

SMILES: Cn1c(=O)cc(N(C)[C@H]2CC[C@@H](N(CC3CCC3)c3ccc(F)cc3)CC2)c2nc(C#N)ccc21 [Example 43, cis-8-((-4-((cyclobutylmethyl)(4-fluorophenyl)amino)cyclohexyl)(methyl)amino)-5-methyl-6-oxo-5,6-dihydro-1,5-naphthyridine-2-carbonitrile]
- IC50 [1]: < 10 nM
- IC50 [2]: 100 to 1000 nM

SMILES: Cn1c(=O)cc(N(C)[C@H]2CC[C@H](N(CC3CCC3)c3ccc(F)cc3)CC2)c2nc(C#N)ccc21 [Example 44, trans-8-((-4-((cyclobutylmethyl)(4-fluorophenyl)amino)cyclohexyl)(methyl)amino)-5-methyl-6-oxo-5,6-dihydro-1,5-naphthyridine-2-carbonitrile]
- IC50 [1]: 100 to 1000 nM
- IC50 [2]: ≥ 1000 nM

SMILES: COc1cc(F)ccc1N(C)[C@H]1CC[C@@H](N(C)c2c(C#N)c(=O)n(C)c3ccc(Cl)nc23)CC1 [Example 45, cis-6-chloro-4-((4-((4-fluoro-2-methoxyphenyl) (methyl)amino)cyclohexyl)(methyl)amino)-1-methyl-2-oxo-1,2-dihydro-1,5-naphthyridine-3-carbonitrile]
- IC50 [1]: 10 to 100 nM
- IC50 [2]: 100 to 1000 nM

SMILES: COc1cc(F)ccc1N(C)[C@H]1CC[C@H](N(C)c2c(C#N)c(=O)n(C)c3ccc(C#N)nc23)CC1 [Example 46, trans-8-((4-((4-fluoro-2-methoxyphenyl)(methyl)amino)cyclohexyl)(methyl)amino)-5-methyl-6-oxo-5,6-dihydro-1,5-naphthyridine-2,7-dicarbonitrile]
- IC50 [1]: 100 to 1000 nM
- IC50 [2]: 10 to 100 nM

SMILES: CC(C)CN(c1ccc(F)cc1)[C@H]1CC[C@@H](N(C)c2cc(=O)n(C)c3ccc(C#N)nc23)CC1 [Example 47, cis-8-((-4-((4-fluorophenyl)(isobutyl)amino)cyclohexyl)(methyl)amino)-5-methyl-6-oxo-5,6-dihydro-1,5-naphthyridine-2-carbonitrile]
- IC50 [1]: 10 to 100 nM
- IC50 [2]: ≥ 1000 nM

SMILES: CC(C)CN(c1ccc(F)cc1)[C@H]1CC[C@@H](N(C)c2c(C#N)c(=O)n(C)c3ccc(Cl)nc23)CC1 [Example 48, cis-6-chloro-4-((-4-((4-fluorophenyl)(isobutyl)amino)cyclohexyl)(methyl)amino)-1-methyl-2-oxo-1,2-dihydro-1,5-naphthyridine-3-carbonitrile]
- IC50 [1]: 100 to 1000 nM
- IC50 [2]: ≥ 1000 nM

SMILES: Cn1c(=O)cc(N(C)[C@H]2CC[C@@H](N(c3ccc(F)cc3)C3CC3)CC2)c2nc(C#N)ccc21 [Example 49, cis-8-((4-(cyclopropyl(4-fluorophenyl)amino)cyclohexyl)(methyl)amino)-5-methyl-6-oxo-5,6-dihydro-1,5-naphthyridine-2-carbonitrile]
- IC50 [1]: < 10 nM
- IC50 [2]: 100 to 1000 nM

SMILES: Cn1c(=O)c(C#N)c(N(C)[C@H]2CC[C@@H](N(c3ccc(F)cc3)C3CC3)CC2)c2nc(C#N)ccc21 [Example 50, cis-8-((4-(cyclopropyl(4-fluorophenyl)amino)cyclohexyl)(methyl)amino)-5-methyl-6-oxo-5,6-dihydro-1,5-naphthyridine-2,7-dicarbonitrile]
- IC50 [1]: < 10 nM
- IC50 [2]: 100 to 1000 nM

SMILES: Cn1c(=O)c(C#N)c(N(C)[C@H]2CC[C@@H](N(c3ccc(F)cc3)C3CC3)CC2)c2nc(Cl)ccc21 [Example 51, cis-6-chloro-4-((4-(cyclopropyl(4-fluorophenyl)amino)cyclohexyl)(methyl)amino)-1-methyl-2-oxo-1,2-dihydro-1,5-naphthyridine-3-carbonitrile]
- IC50 [1]: < 10 nM
- IC50 [2]: 100 to 1000 nM

SMILES: CC(C)CN(c1ccc(F)cc1)[C@H]1CC[C@@H](N(C)c2c(C#N)c(=O)n(C)c3ccc(C#N)nc23)CC1 [Example 52, cis-8-((-4-((4-fluorophenyl)(isobutyl)amino)cyclohexyl)(methyl)amino)-5-methyl-6-oxo-5,6-dihydro-1,5-naphthyridine-2,7-dicarbonitrile]
- IC50 [1]: < 10 nM
- IC50 [2]: 10 to 100 nM

SMILES: Cn1c(=O)c(C#N)c(N(C)[C@H]2CC[C@@H](N(CC3CCOCC3)c3ccc(F)cc3)CC2)c2nc(C#N)ccc21 [Example 53, cis-8-((-4-((4-fluorophenyl)((tetrahydro-2H-pyran-4-yl)methyl)amino)cyclohexyl)(methyl)amino)-5-methyl-6-oxo-5,6-dihydro-1,5-naphthyridine-2,7-dicarbonitrile]
- IC50 [1]: 10 to 100 nM
- IC50 [2]: 100 to 1000 nM

SMILES: Cn1c(=O)c(C#N)c(N(C)[C@H]2CC[C@H](N(CC3CC3)c3ccc(F)cc3)CC2)c2nc(C#N)ccc21 [Example 54, trans-8-((4-((cyclopropylmethyl)(4-fluorophenyl)amino)cyclohexyl)(methyl)amino)-5-methyl-6-oxo-5,6-dihydro-1,5-naphthyridine-2,7-dicarbonitrile]
- IC50 [1]: 100 to 1000 nM
- IC50 [2]: 100 to 1000 nM

SMILES: Cn1c(=O)c(C#N)c(N(C)[C@H]2CC[C@H](N(CC3CCOCC3)c3ccc(F)cc3)CC2)c2nc(C#N)ccc21 [Example 59, trans-8-((-4-((4-fluorophenyl)((tetrahydro-2H-pyran-4-yl)methyl)amino)cyclohexyl)(methyl)amino)-5-methyl-6-oxo-5,6-dihydro-1,5-naphthyridine-2,7-dicarbonitrile]
- IC50 [1]: 100 to 1000 nM
- IC50 [2]: 100 to 1000 nM

SMILES: Cn1c(=O)c(C#N)c(N(C)[C@H]2CC[C@@H](N(CC3CC3)c3ccc(F)c(F)c3)CC2)c2nc(C#N)ccc21 [Example 60, cis-8-((4-((cyclopropylmethyl)(3,4-difluorophenyl)amino)cyclohexyl)(methyl)amino)-5-methyl-6-oxo-5,6-dihydro-1,5-naphthyridine-2,7-dicarbonitrile]
- IC50 [1]: 100 to 1000 nM
- IC50 [2]: 10 to 100 nM

SMILES: Cn1c(=O)c(C#N)c(N(C)[C@H]2CC[C@@H](N(CC3CC3)c3ccc4c(c3)OCO4)CC2)c2nc(C#N)ccc21 [Example 61, cis-8-((4-(benzo[d][1,3]dioxol-5-yl(cyclopropylmethyl)amino)cyclohexyl)(methyl)amino)-5-methyl-6-oxo-5,6-dihydro-1,5-naphthyridine-2,7-dicarbonitrile]
- IC50 [1]: 100 to 1000 nM
- IC50 [2]: 10 to 100 nM

SMILES: COc1cc(F)ccc1N(C)[C@H]1CC[C@@H](N(C)c2c(C#N)c(=O)n(C)c3ccc(C#N)nc23)CC1 [Example 64]
- IC50 [1]: 10 to 100 nM
- IC50 [2]: 10 to 100 nM

SMILES: COc1cc(N(C2CC2)[C@H]2CC[C@@H](N(C)c3c(C#N)c(=O)n(C)c4ccc(C#N)nc34)CC2)ccc1F [Example 65]
- IC50 [1]: 10 to 100 nM
- IC50 [2]: 10 to 100 nM

SMILES: Cn1c(=O)c(C#N)c(N(C)[C@H]2CC[C@@H](N(C[C@H]3CCOC3)c3ccc(F)cc3)CC2)c2nc(C#N)ccc21 [Example 66]
- IC50 [1]: 10 to 100 nM
- IC50 [2]: 100 to 1000 nM

SMILES: Cn1c(=O)c(C#N)c(N(C)[C@H]2CC[C@@H](N(C[C@@H]3CCOC3)c3ccc(F)cc3)CC2)c2nc(C#N)ccc21 [Example 67]
- IC50 [1]: 10 to 100 nM
- IC50 [2]: 100 to 1000 nM

SMILES: Cn1c(=O)c(C#N)c(N(C)[C@H]2CC[C@@H](N(C[C@H]3CCCOC3)c3ccc(F)cc3)CC2)c2nc(C#N)ccc21 [Example 68]
- IC50 [1]: < 10 nM
- IC50 [2]: 10 to 100 nM

SMILES: Cn1c(=O)c(C#N)c(N(C)[C@H]2CC[C@@H](N(C[C@@H]3CCCOC3)c3ccc(F)cc3)CC2)c2nc(C#N)ccc21 [Example 69]
- IC50 [1]: 10 to 100 nM
- IC50 [2]: 10 to 100 nM

SMILES: Cc1ccccc1N(CC1CC1)[C@H]1CC[C@H](N(C)c2cc(=O)n(C)c3ccc(C#N)nc23)CC1 [Example 70, trans-8-((4-((cyclopropylmethyl)(o-tolyl)amino)cyclohexyl)(methyl)amino)-5-methyl-6-oxo-5,6-dihydro-1,5-naphthyridine-2-carbonitrile]
- IC50 [1]: ≥ 1000 nM
- IC50 [2]: 100 to 1000 nM

SMILES: Cc1ccccc1N(CC1CC1)[C@H]1CC[C@H](N(C)c2c(C#N)c(=O)n(C)c3ccc(C#N)nc23)CC1 [Example 71, trans-8-((4-((cyclopropylmethyl)(o-tolyl)amino)cyclohexyl)(methyl)amino)-5-methyl-6-oxo-5,6-dihydro-1,5-naphthyridine-2,7-dicarbonitrile]
- IC50 [1]: ≥ 1000 nM
- IC50 [2]: 10 to 100 nM
